Experimental data reported in ChEMBL document CHEMBL4308854, “Novel indole-thiazolidinone conjugates: Design, synthesis and whole-cell phenotypic evaluation as a novel class of antimicrobial agents” (Eur J Med Chem, 2018).
≈ marks a conversion by molar mass, not a printed value.

Assays:
KM12 = experiment: Growth inhibition of human KM12 cells assessed as cell growth at 10^-5 M incubated for 48 hrs by sulforhodamine B assay relative to control; format: cell-based; design: scale not given: the % may be the effect or the level left; details: km12, 48 h, 10 µM
HCT-116 = experiment: Growth inhibition of human HCT116 cells assessed as cell growth at 10^-5 M incubated for 48 hrs by sulforhodamine B assay relative to control; format: cell-based; design: scale not given: the % may be the effect or the level left; details: hct-116, 48 h, 10 µM
Pseudomonas aeruginosa [1] = experiment: Antibacterial activity against Pseudomonas aeruginosa RCMB 010043 after 24 hrs by serial dilution method; format: functional; details: RCMB 010043, 24 h
Hs-578T = experiment: Growth inhibition of human Hs 578T cells assessed as cell growth at 10^-5 M incubated for 48 hrs by sulforhodamine B assay relative to control; format: cell-based; design: scale not given: the % may be the effect or the level left; details: 10 µM
MOLT-4 = experiment: Growth inhibition of human MOLT4 cells assessed as cell growth at 10^-5 M incubated for 48 hrs by sulforhodamine B assay relative to control; format: cell-based; design: scale not given: the % may be the effect or the level left; details: molt-4, 48 h, 10 µM
ACHN = experiment: Growth inhibition of human ACHN cells assessed as cell growth at 10^-5 M incubated for 48 hrs by sulforhodamine B assay relative to control; format: cell-based; design: scale not given: the % may be the effect or the level left; details: 10 µM
[2] = test system: Mycobacterium tuberculosis; experiment: Antitubercular activity against Mycobacterium tuberculosis RCMB 010126 clinical isolate after 4 days by microplate alamar blue assay; format: functional; details: for MIC: Mycobacterium tuberculosis, RCMB 010126, 96 h
Staphylococcus aureus [3] = experiment: Antibacterial activity against Staphylococcus aureus RCMB 010028 after 24 hrs by serial dilution method; format: functional; details: RCMB 010028, 24 h
T47D = experiment: Growth inhibition of human T47D cells assessed as cell growth at 10^-5 M incubated for 48 hrs by sulforhodamine B assay relative to control; format: cell-based; design: scale not given: the % may be the effect or the level left; details: 10 µM
EKVX = experiment: Growth inhibition of human EKVX cells assessed as cell growth at 10^-5 M incubated for 48 hrs by sulforhodamine B assay relative to control; format: cell-based; design: scale not given: the % may be the effect or the level left; details: 10 µM
OVCAR-3 = experiment: Growth inhibition of human OVCAR3 cells assessed as cell growth at 10^-5 M incubated for 48 hrs by sulforhodamine B assay relative to control; format: cell-based; design: scale not given: the % may be the effect or the level left; details: ovcar-3, 48 h, 10 µM
OVCAR-4 = experiment: Growth inhibition of human OVCAR4 cells assessed as cell growth at 10^-5 M incubated for 48 hrs by sulforhodamine B assay relative to control; format: cell-based; design: scale not given: the % may be the effect or the level left; details: ovcar-4, 48 h, 10 µM
Pseudomonas aeruginosa [4] = experiment: Potency index, ratio of ciprofloxacin MIC to compound MIC for Pseudomonas aeruginosa RCMB 010043; format: functional
NCI-H460 = experiment: Growth inhibition of human NCI-H460 cells assessed as cell growth at 10^-5 M incubated for 48 hrs by sulforhodamine B assay relative to control; format: cell-based; design: scale not given: the % may be the effect or the level left; details: nci-h460, 48 h, 10 µM
K562 = experiment: Growth inhibition of human K562 cells assessed as cell growth at 10^-5 M incubated for 48 hrs by sulforhodamine B assay relative to control; format: cell-based; design: scale not given: the % may be the effect or the level left; details: k562, 48 h, 10 µM
CCRF-CEM = experiment: Growth inhibition of human CCRF-CEM cells assessed as cell growth at 10^-5 M incubated for 48 hrs by sulforhodamine B assay relative to control; format: cell-based; design: scale not given: the % may be the effect or the level left; details: 10 µM
SK-MEL-28 = experiment: Growth inhibition of human SK-MEL-28 cells assessed as cell growth at 10^-5 M incubated for 48 hrs by sulforhodamine B assay relative to control; format: cell-based; design: scale not given: the % may be the effect or the level left; details: sk-mel-28, 48 h, 10 µM
OVCAR-5 = experiment: Growth inhibition of human OVCAR5 cells assessed as cell growth at 10^-5 M incubated for 48 hrs by sulforhodamine B assay relative to control; format: cell-based; design: scale not given: the % may be the effect or the level left; details: ovcar-5, 48 h, 10 µM
[5] = Stability in mouse RAW264.7 cells measured after 48 hrs; format: ADME, cell-based; details: raw264.7, 48 h
HL-60(TB) = experiment: Growth inhibition of human HL-60(TB) cells assessed as cell growth at 10^-5 M incubated for 48 hrs by sulforhodamine B assay relative to control; format: cell-based; design: scale not given: the % may be the effect or the level left; details: 10 µM
SF-539 = experiment: Growth inhibition of human SF539 cells assessed as cell growth at 10^-5 M incubated for 48 hrs by sulforhodamine B assay relative to control; format: cell-based; design: scale not given: the % may be the effect or the level left; details: sf-539, 48 h, 10 µM
Malme-3M = experiment: Growth inhibition of human MALME-3M cells assessed as cell growth at 10^-5 M incubated for 48 hrs by sulforhodamine B assay relative to control; format: cell-based; design: scale not given: the % may be the effect or the level left; details: 10 µM
HT-29 = experiment: Growth inhibition of human HT-29 cells assessed as cell growth at 10^-5 M incubated for 48 hrs by sulforhodamine B assay relative to control; format: cell-based; design: scale not given: the % may be the effect or the level left; details: ht-29, 48 h, 10 µM
SNB-75 = experiment: Growth inhibition of human SNB75 cells assessed as cell growth at 10^-5 M incubated for 48 hrs by sulforhodamine B assay relative to control; format: cell-based; design: scale not given: the % may be the effect or the level left; details: snb-75, 48 h, 10 µM
SNB-19 = experiment: Growth inhibition of human SNB19 cells assessed as cell growth at 10^-5 M incubated for 48 hrs by sulforhodamine B assay relative to control; format: cell-based; design: scale not given: the % may be the effect or the level left; details: snb-19, 48 h, 10 µM
Escherichia coli = experiment: Antibacterial activity against Escherichia coli RCMB 010052 after 24 hrs by serial dilution method; format: functional; details: RCMB 010052, 24 h
BT-549 = experiment: Growth inhibition of human BT549 cells assessed as cell growth at 10^-5 M incubated for 48 hrs by sulforhodamine B assay relative to control; format: cell-based; design: scale not given: the % may be the effect or the level left; details: bt-549, 48 h, 10 µM
UACC-257 = experiment: Growth inhibition of human UACC257 cells assessed as cell growth at 10^-5 M incubated for 48 hrs by sulforhodamine B assay relative to control; format: cell-based; design: scale not given: the % may be the effect or the level left; details: uacc-257, 48 h, 10 µM
Staphylococcus aureus [6] = experiment: Potency index, ratio of ciprofloxacin MIC to compound MIC for Staphylococcus aureus RCMB 010028; format: functional
MDA-MB-468 = experiment: Growth inhibition of human MDA-MB-468 cells assessed as cell growth at 10^-5 M incubated for 48 hrs by sulforhodamine B assay relative to control; format: cell-based; design: scale not given: the % may be the effect or the level left; details: mda-mb-468, 48 h, 10 µM
SK-MEL-2 = experiment: Growth inhibition of human SK-MEL-2 cells assessed as cell growth at 10^-5 M incubated for 48 hrs by sulforhodamine B assay relative to control; format: cell-based; design: scale not given: the % may be the effect or the level left; details: sk-mel-2, 48 h, 10 µM
[7] = Cytotoxicity against mouse RAW264.7 cells; format: cell-based
A549 = experiment: Growth inhibition of human A549 cells assessed as cell growth at 10^-5 M incubated for 48 hrs by sulforhodamine B assay relative to control; format: cell-based; design: scale not given: the % may be the effect or the level left; details: a549, 48 h, 10 µM
Candida albicans = experiment: Antifungal activity against Candida albicans RCMB 05036 assessed as diameter of zone inhibition after 48 hrs by agar well diffusion assay; format: functional
DU-145 = experiment: Growth inhibition of human DU145 cells assessed as cell growth at 10^-5 M incubated for 48 hrs by sulforhodamine B assay relative to control; format: cell-based; design: scale not given: the % may be the effect or the level left; details: du-145, 48 h, 10 µM
[8] = Selectivity index, ratio of GI50 for mouse RAW264.7 cells to MIC for Mycobacterium aurum infected in mouse RAW264.7 cells; format: toxicity, cell-based; details: read-out: Selectivity Index
OVCAR-8 = experiment: Growth inhibition of human OVCAR8 cells assessed as cell growth at 10^-5 M incubated for 48 hrs by sulforhodamine B assay relative to control; format: cell-based; design: scale not given: the % may be the effect or the level left; details: ovcar-8, 48 h, 10 µM

SMILES | Activity (KM12) | Activity (HCT-116) | MIC (Pseudomonas aeruginosa [1]) | Activity (Hs-578T) | Activity (MOLT-4) | Activity (ACHN) | inhibition (INH) [2] | MIC [2] | MIC (Staphylococcus aureus [3]) | Activity (T47D) | Activity (EKVX) | Activity (OVCAR-3) | Activity (OVCAR-4) | Ratio (Pseudomonas aeruginosa [4]) | Activity (NCI-H460) | Activity (K562) | Activity (CCRF-CEM) | Activity (SK-MEL-28) | Activity (OVCAR-5) | Stability [5] | other results
CCOC(=O)c1sc(/N=C2\NC(=O)/C(=C3/C(=O)N(Cc4ccccc4)c4ccc(Cl)cc43)S2)nc1C | 101.95% | 96.07% | 1.95 µg/mL (≈ 3.62 µM) | 94.4% | 97.7% | 110.67% | 75.32% | 0.39 µg/mL (≈ 0.724 µM) | 0.98 µg/mL (≈ 1.82 µM) | 96.84% | 100.9% | 105.46% | 110.06% | 2 | 101.98% | 101.93% | 98.38% | 113.38% | 112.65% | Stable | Activity (HL-60(TB)): 105.41%; Activity (SF-539): 99.4%; Activity (Malme-3M): 102.79%; Activity (HT-29): 100.13%; Activity (SNB-75): 90.57%; Activity (SNB-19): 103.82%; MIC (Escherichia coli): 0.98 µg/mL (≈ 1.82 µM); Activity (BT-549): 103.71%; Activity (UACC-257): 106.14%; Ratio (Staphylococcus aureus [6]): 2; Activity (MDA-MB-468): 108.31%; Activity (SK-MEL-2): 100.66%; GI50 [7]: 62.5 µg/mL (≈ 116 µM); Activity (A549): 97.17%; diameter of the inhibition zone (DIZ) (Candida albicans): 21.7 mm; Activity (DU-145): 104.75%; selectivity ratio [8]: 1.25; Activity (OVCAR-8): 103.48%
CC(=O)c1sc(/N=C2\NC(=O)/C(=C3/C(=O)N(C)c4ccc(Cl)cc43)S2)nc1C | 94.43% | 94.04% | 0.98 µg/mL (≈ 2.26 µM) | 115.73% | 105.36% | 104.32% | 76.35% | 0.39 µg/mL (≈ 0.901 µM) | 0.98 µg/mL (≈ 2.26 µM) | 106.34% | 95.78% | 96.17% | 94.35% | 4 | 113.18% | 100.75% | 111% | 99.13% | 104.59% | Stable | Activity (HL-60(TB)): 98.79%; Activity (SF-539): 94.05%; Activity (Malme-3M): 85.96%; Activity (HT-29): 98.45%; Activity (SNB-75): 104.77%; Activity (SNB-19): 98.6%; MIC (Escherichia coli): 0.49 µg/mL (≈ 1.13 µM); Activity (BT-549): 94.91%; Activity (UACC-257): 114.2%; Ratio (Staphylococcus aureus [6]): 2; Activity (MDA-MB-468): 94.2%; Activity (SK-MEL-2): 99.78%; GI50 [7]: 125 µg/mL (≈ 289 µM); Activity (A549): 105.29%; diameter of the inhibition zone (DIZ) (Candida albicans): 24.1 mm; Activity (DU-145): 100.78%; selectivity ratio [8]: 5; Activity (OVCAR-8): 117.64%
